Values after ≈ are worked out from the molar mass of the structure shown.
Legend:
[1] = Plasma levels after transdermal administration to hairless mice; format: in vivo; details: for t, time to peak plasma level after parent compound: parent compound administered (time when taken orally); for Peak plasma concentration after parent compound: parent compound administered, hairless mice
Experimental: Tested compounds (20% solution or suspension in 1 mL isopropanol) are administered transdermally to the skin of intact hairless mice. The plasma levels of the parent compounds are determined by HPLC.

mice = experiment: Analgesic activity, acetic acid writhing; format: in vivo; details: 30 min before acetic acid; for inhibition at 50 mg/kg / inhibition at 100 mg/kg: Mus musculus, po, read-out: % (rate of writhing inhibition)
Experimental: The prodrug compounds are administered either transdermally or orally. The parent compounds are administered orally. The number of writhing that occurred when mice are administered the acetic acid solution are counted, and the rate of inhibition based on the control group which was not pretreated with any test compounds is calculated. […] The A group is the control group.

rats = experiment: Antipyretic activity, E. coli suspension as pyrogen; format: in vivo; details: in °C (unit assumed)
Experimental: Rats are administered with sterilized E. coli suspension as a pyrogen. Each group of rats are administered with a prodrug compounds or parent compounds at a dosage specified below. The prodrug compounds are administered either orally or transdermally. The parent compounds are administered orally.

human skin tissue = details: human, 20 %, pH 7.4
in vivo = details: rat
Experimental: The acute toxicity of the prodrug compounds and parent compounds are measured by LD50 of rat.

[2] = Solubility in water / aqueous solubility of HPPs and parent drugs; details: water
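Throughout, for LD50: acute toxicity in rats expressed as LD50, determined for both prodrugs and their parent compounds.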

| Compound | t, time to peak plasma level after parent compound [1] [h] | Peak plasma concentration after parent compound [1] [mg/L] | In vitro penetration rate (apparent flux), parent compounds (human skin tissue) [μg/cm^2/h] | LD50 (in vivo) [mg/kg] | solubility [2] [µg/mL] | other results |
| --- | --- | --- | --- | --- | --- | --- |
| CC(=O)Oc1ccccc1C(=O)O [Aspirin, acetylsalicylic acid, reference compound] | ~2 | 0.1 | <1 | 1500 | 10 (≈ 55.5 µM) | No. of Writhing (mice; 50 mg/kg orally): 18.2; No. of Writhing (mice; 100 mg/kg orally): 13.2; inhibition at 50 mg/kg (mice; 50 mg/kg orally): 45%; inhibition at 100 mg/kg (mice; 100 mg/kg orally): 60%; body temperature, t = 0 min (rats; 100 mg/kg orally): 37.22 ± 0.05; body temperature, t = 90 min (rats; 100 mg/kg orally): 36.80 ± 0.05; body temperature, t = 180 min (rats; 100 mg/kg orally): 36.85 ± 0.05; body temperature, t = 270 min (rats; 100 mg/kg orally): 36.81 ± 0.05; body temperature, t = 0 min (rats; 150 mg/kg orally): 37.30 ± 0.06; body temperature, t = 90 min (rats; 150 mg/kg orally): 36.50 ± 0.05; body temperature, t = 180 min (rats; 150 mg/kg orally): 36.59 ± 0.05; body temperature, t = 270 min (rats; 150 mg/kg orally): 36.55 ± 0.05 |
| O=C(O)c1cc(-c2ccc(F)cc2F)ccc1O [Diflunisal, 5-(2,4-difluorophenyl) salicylic acid, reference compound] | 1 to 2 | 0.2 | <1 | 500 | 50 (≈ 200 µM) | No. of Writhing (mice; 50 mg/kg orally): 18.1; No. of Writhing (mice; 100 mg/kg orally): 13.2; inhibition at 50 mg/kg (mice; 50 mg/kg orally): 48%; inhibition at 100 mg/kg (mice; 100 mg/kg orally): 62%; body temperature, t = 0 min (rats; 100 mg/kg orally): 37.25 ± 0.06; body temperature, t = 90 min (rats; 100 mg/kg orally): 36.81 ± 0.05; body temperature, t = 180 min (rats; 100 mg/kg orally): 36.82 ± 0.08; body temperature, t = 270 min (rats; 100 mg/kg orally): 36.78 ± 0.07; body temperature, t = 0 min (rats; 150 mg/kg orally): 37.35 ± 0.09; body temperature, t = 90 min (rats; 150 mg/kg orally): 36.61 ± 0.07; body temperature, t = 180 min (rats; 150 mg/kg orally): 36.56 ± 0.06; body temperature, t = 270 min (rats; 150 mg/kg orally): 36.57 ± 0.05 |
| O=C(O)C(Cl)c1ccc(C2CCCCC2)c(Cl)c1 (centres unmarked) [Fenclorac, fenclorac] | 2 to 4 | 10 | 40 | 430 | 200 (≈ 696 µM) | – |
| CC(C(=O)O)c1cccc(Oc2ccccc2)c1 (centres unmarked) [Fenoprofen, 2-(3-phenoxyphenyl) propionic acid, reference compound] | 1 to 2 | 1 | <1 | 800 | 100 (≈ 413 µM) | No. of Writhing (mice; 50 mg/kg orally): 13.2; inhibition at 50 mg/kg (mice; 50 mg/kg orally): 62%; body temperature, t = 0 min (rats; 50 mg/kg orally): 37.22 ± 0.07; body temperature, t = 90 min (rats; 50 mg/kg orally): 36.82 ± 0.06; body temperature, t = 180 min (rats; 50 mg/kg orally): 36.80 ± 0.05; body temperature, t = 270 min (rats; 50 mg/kg orally): 36.77 ± 0.08 |
| O=C(O)c1ccccc1Nc1cccc(C(F)(F)F)c1 [Flufenamic acid, flufenamic acid] | 2 to 4 | 0.1 | 10 | 720 | < 100 | – |
| COc1ccc2c(c1)c(CC(=O)O)c(C)n2C(=O)c1ccc(Cl)cc1 [Indomethacin, indomethacin] | 1 to 2 | 0.1 | 10 | 13 | 100 (≈ 279 µM) | – |
| CC(C(=O)O)c1ccc(N2Cc3ccccc3C2=O)cc1 (centres unmarked) [Indoprofen, indoprofen] | 2 to 4 | 10 | 30 | 700 | 100 (≈ 355 µM) | – |
| Cc1cccc(Nc2ccccc2C(=O)O)c1C [Mefenamic acid, mefenamic acid] | 2 to 4 | 0.1 | 10 | 600 | < 100 | – |
| O=C(O)c1cccnc1Nc1cccc(C(F)(F)F)c1 [Niflumic acid, niflumic acid] | 2 to 4 | 0.1 | 10 | 650 | < 100 | – |
| CN1C(C(=O)Nc2ccccn2)=C(O)c2ccccc2S1(=O)=O [Piroxicam, piroxicam] | 2 to 4 | 0.1 | <1 | 360 | < 100 | – |
| CC(C(=O)O)c1ccc2c(c1)Cc1cccnc1O2 (centres unmarked) [Pranoprofen, pranoprofen] | 2 to 4 | 10 | 30 | 450 | 200 (≈ 783 µM) | – |
| Cc1ccc(C(=O)c2ccc(CC(=O)O)n2C)cc1 [Tolmetin, tolmetin] | 1 to 2 | 0.1 | 10 | 350 | 200 (≈ 777 µM) | – |
| Cc1cc(CC(=O)O)n(C)c1C(=O)c1ccc(Cl)cc1 [Zomepirac, zomepirac] | 1 to 2 | 0.1 | 10 | 27 | 200 (≈ 686 µM) | – |
